From USRE39616E1, “Aminoindan derivatives” (priority 1996, dated 2007)
Counter-ions that a name gives are not always drawn.

What was measured:
[1] = system: Closed Head Injury (CHI) in Mice; experiment: Morris Water Maze Test after closed head injury (reference memory); settings: retested daily for 2 weeks
Method: Morris Water Maze Test: the water maze consists of a circular aluminium pool, im in diameter and 60 cm in depth, filled with water to a depth of 17.5 cm. The hidden goal platform is a glass vessel (15 cm diameter×16.5 cm height) placed upside down at a fixed location in the pool, 1 cm below the surface of the water. The water temperature is maintained at 24° C. and the pool is always placed in the same position in the room to provide the same extra-maze cues. […] Commencing 24 hr after CHI, mice were retested daily for 2 weeks in 3 trials per day.

MAO-B = biological target: T1, MAO-B (Rattus norvegicus, UniProt P19643); experiment: Inhibition of MAO activity following sub-acute administration to rats; assay type: in vivo; set-up: from tissue; host or cells: rat brain, liver and intestine; settings: sc, read-out: % MAO-B inhibition, Intestine, dose head prints 25 mg/kg (6 mg/kg sc) daily for 14 days
T1 sequence (P19643 1-520): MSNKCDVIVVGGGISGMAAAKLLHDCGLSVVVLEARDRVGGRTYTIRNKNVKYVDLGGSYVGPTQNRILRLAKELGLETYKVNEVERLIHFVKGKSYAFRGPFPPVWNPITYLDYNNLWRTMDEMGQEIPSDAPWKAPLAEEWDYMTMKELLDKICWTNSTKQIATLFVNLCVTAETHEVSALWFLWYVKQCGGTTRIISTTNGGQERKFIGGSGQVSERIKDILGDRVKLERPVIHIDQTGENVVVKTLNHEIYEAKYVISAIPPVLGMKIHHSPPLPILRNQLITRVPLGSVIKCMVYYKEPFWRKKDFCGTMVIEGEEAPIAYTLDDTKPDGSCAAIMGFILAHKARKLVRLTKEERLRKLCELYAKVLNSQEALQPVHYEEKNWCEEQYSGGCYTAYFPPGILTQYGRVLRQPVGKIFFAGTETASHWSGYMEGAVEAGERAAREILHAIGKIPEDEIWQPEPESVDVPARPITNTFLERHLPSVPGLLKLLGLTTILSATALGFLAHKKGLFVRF
Method: Substrate concentrations used were 50 μM (PEA) and 1 mM (5-HT).
Male Sabra mice, weighing 45-50 g were injected with test compound solutions (prepared in 0.9% saline). Each dose was administered to two or three mice. The mice were sacrificed two hours after drug administration or at a time corresponding to the peak AChE inhibition time (see Table 11). The brain and liver were rapidly dissected and stored in appropriate vials on ice. The tissues were weighed, diluted to ½ in sucrose 0.3M and stored at −20° C. before performance of the MAO assay described above. The results given in Table 11 relate to measurements made on brain tissue only.
Experiments were done in Sprague Dawley male rats. […] At the end of this period animals were sacrificed and MAO levels determined in the brain, liver and intestines.

Structure (SMILES): CCN(C)C(=O)Oc1ccc2c(c1)C(NC)CC2 (stereo not drawn) [Compound 10]
- reduction in latency to find the platform, Morris Water Maze, compared to saline treated controls ([1]; 15 mg/kg, FIG. 1): Memory is enhanced

Structure (SMILES): C#CCNC1CCc2ccc(OC(=O)N(C)C)cc21 (stereo not drawn) [Compound 24, 6-(N,N-Dimethylcarbamyloxy)-N-propargyl aminoindan mesylate]
- inhibition at 6 mg/kg (MAO-B): 0%

Structure (SMILES): C#CCNC1CCc2ccc(OC(=O)N(C)CC)cc21 (stereo not drawn) [Compound 25, 6-(N-Me, N-Etcarbamyloxy) N-propargyl aminoindan, HCl]
- reduction in latency to find the platform, Morris Water Maze, compared to saline treated controls ([1]; 46 mg/kg, FIG. 2): Memory is enhanced
